Source: patent US20210330611A1, “THERAPY FOR NEUROLOGICAL DISEASES/DISORDERS” (priority 2020, published 2021)
Values joined by “and” are separate entries in the source; they are usually repeats but may differ in a detail not shown here. Equal values may be shown once. Read-outs that look alike come from different tables or passages of the source.

Assays:
[1] = test system: fibrin-induced microglia activation; assay: Image-based assay of fibrin-induced microglia activation (HTS and dose response); format: cell-based, rat; conditions: for inhibition at 10 µM: read-out: Fibrin % inhibition
primary rat microglia [2] = assay: Cell toxicity (dead cells, size <150 μm2) in LPS assay; conditions: for IC50: read-out: Cell Toxicity IC50 (uM) [LPS assay]
[3] = test system: LPS-induced microglia activation; assay: Image-based assay of LPS-induced microglia activation (HTS and dose response); format: cell-based, rat; conditions: for inhibition at 10 µM: read-out: LPS % inhibition
primary rat microglia [4] = assay: Cell toxicity (dead cells, size <150 μm2) in coated fibrin (cFib) assay; conditions: for IC50: read-out: Cell Toxicity IC50 (uM) [cFib assay];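 for Fibrin % cell toxicity: share of dead cells sized under 150 µm2 at 10 µM in fibrin-stimulated microglia HTS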
[5] = test system: fibrin- and LPS-induced microglia activation; assay: cells; format: cell-based, rat
[6] = Rattus norvegicus, Microglia, primary microglia HTS, fibrin stimulation, activation = cell size >800 μm2
[7] = primary microglia HTS, LPS stimulation, toxicity = cell size <150 μm2
[8] = Rattus norvegicus, Microglia, 48 h, primary microglia HTS, LPS stimulation, activation = cell size >800 μm2
[9] = primary microglia HTS, fibrin stimulation, toxicity = cell size <150 μm2
[10] = quadrant by fibrin and LPS inhibition in HTS of 1907 compounds
[11] = HTS of 1907 compounds, quadrant by fibrin and LPS inhibition
[12] = Rattus norvegicus, Microglia, primary microglia HTS, fibrin stimulation, increased cell size (>800 μm^2) as marker of activation
[13] = primary microglia HTS, LPS stimulation, decreased size (<150 μm^2) as marker of toxicity
[14] = Rattus norvegicus, Microglia, 48 h, primary microglia HTS, LPS stimulation, increased cell size (>800 μm^2) as marker of activation
[15] = primary microglia HTS, fibrin stimulation, decreased size (<150 μm^2) as marker of toxicity
[16] = Rattus norvegicus, Microglia, primary HTS, 10 μM, fibrin-stimulated primary microglia
[17] = primary HTS, 10 μM, LPS assay, dead cells size <150 μm2
[18] = Rattus norvegicus, Microglia, primary HTS, 10 μM, LPS-stimulated primary microglia
[19] = primary HTS, 10 μM, fibrin assay, dead cells size <150 μm2

CNC(=O)c1c(I)c(NC(C)=O)c(I)c(C(=O)O)c1I [Iothalamic Acid]
inhibition at 10 µM [1, 6]: 5% | LPS % cell toxicity (primary rat microglia [2]; [7]): 0% | inhibition at 10 µM [3, 8]: 7% | Fibrin % cell toxicity (primary rat microglia [4]; [9]): 1% | Quadrant (FIG. 5b) [5, 10]: Q4

C[N+]1(C)[C@@H]2CC[C@H]1C[C@@H](OC(=O)C(O)c1ccccc1)C2 (stereo partly drawn) [Homatropine Methylbromide]
inhibition at 10 µM [1, 6]: -18% | LPS % cell toxicity (primary rat microglia [2]; [7]): 0% | inhibition at 10 µM [3, 8]: 12% | Fibrin % cell toxicity (primary rat microglia [4]; [9]): 1% | Quadrant (FIG. 5b) [5, 10]: Q4

O=C1[O][Pt]2([NH][C@@H]3CCCC[C@H]3[NH]2)[O]C1=O [Oxaliplatin, reference compound]
IC50 ([1]; Table 1, dose response 0.001-20 μM, triplicates, primary rat microglia, 48 h, read-out: Fibrin IC50): 5 µM | IC50 ([1]; Table 3, read-out: Fibrin IC50 (uM) (Suppl. Table 7)): 5 µM | IC50 ([1]; dose response, fibrin-induced microglia activation, read-out: Fibrin IC50): 5 µM | IC50 ([1]; fibrin-induced microglia activation, dose response, read-out: Fibrin IC50 (uM) (Suppl. Table 7)): 5 µM | Fibrin % inhibition ([1]; primary microglia HTS, fibrin stimulation, compounds at 10 μM): 66% | Fibrin % inhibition ([1]; primary microglia HTS, fibrin stimulation, increased cell size (>800 μm^2) as marker of activation): 96% | IC50 (primary rat microglia [2]; LPS assay): > 20 µM | IC50 (primary rat microglia [2]; Table 3): > 20 µM | IC50 ([3]; LPS-induced microglia activation, dose response, read-out: LPS IC50 (uM) (Suppl. Table 7)): 15 µM | IC50 ([3]; Table 1, dose response 0.001-20 μM, triplicates, primary rat microglia, 48 h, read-out: LPS IC50): 15 µM | IC50 ([3]; Table 3, read-out: LPS IC50 (uM) (Suppl. Table 7)): 15 µM | IC50 ([3]; dose response, LPS-induced microglia activation, read-out: LPS IC50): 15 µM | LPS % inhibition ([3]; primary microglia HTS, LPS stimulation, compounds at 10 μM): 21% | LPS % inhibition ([3]; primary microglia HTS, LPS stimulation, increased cell size (>800 μm^2) as marker of activation): 41% | IC50 (primary rat microglia [4]; Table 3): > 20 µM | IC50 (primary rat microglia [4]; cFib assay): > 20 µM | Hit ([5]; HTS hit classification): HIT (Hits were defined as molecules that exhibited greater than 50% inhibition of either fibrin or LPS activation) | Quadrant (FIG. 5b) [5, 11]: Q3 | Quadrant (FIG. 5b) ([5]; Table 1, screen at 10 μM): Q3 | Cherry-picked Hit (Suppl. Table 7) ([5]; Table 3): HIT (Hits were defined as molecules that exhibited greater than 50% inhibition of either fibrin or LPS activation) | Quadrant (FIG. 5b) ([5]; Table 3, screen at 10 μM): Q3 | Cherry-picked Hit (Suppl. Table 7) ([5]; hit classification in microglia HTS): HIT (Hits were defined as molecules that exhibited greater than 50% inhibition of either fibrin or LPS activation) | Quadrant (FIG. 5b) [5, 10]: Q3 | Quadrant (FIG. 5b) ([5]; quadrant by fibrin and LPS inhibition, HTS at 10 μM): Q3

Cc1cccc(CN2CCN(C(c3ccccc3)c3ccc(Cl)cc3)CC2)c1 (stereo not drawn) [Meclizine]
inhibition at 10 µM [1, 12]: -33% | LPS % cell toxicity (primary rat microglia [2]; [13]): 0% | inhibition at 10 µM [3, 14]: 12% | Fibrin % cell toxicity (primary rat microglia [4]; [15]): 0% | Quadrant (FIG. 5b) [5, 10]: Q4

Oc1c(Cl)cc(Cl)c(Cl)c1Cc1c(O)c(Cl)cc(Cl)c1Cl [Hexachlorophene]
inhibition at 10 µM ([1]; Rattus norvegicus, Microglia): -19% | LPS % cell toxicity (primary rat microglia [2]; [7]): 0% | inhibition at 10 µM ([3]; Rattus norvegicus, Microglia, 48 h): 15% | Fibrin % cell toxicity (primary rat microglia [4]; [9]): 0% | Quadrant (FIG. 5b) [5, 10]: Q4

CC1(C)O[C@@H]2C[C@H]3[C@@H]4C[C@H](F)C5=CC(=O)CC[C@]5(C)[C@H]4[C@@H](O)C[C@]3(C)[C@]2(C(=O)CO)O1 [Flurandrenolide, reference compound]
IC50 ([1]; Rattus norvegicus, Microglia, Table 7, read-out: fib_IC50): 0.002 µM | inhibition at 10 µM [1, 12]: 110% | LPS % cell toxicity (primary rat microglia [2]; [13]): 5% | inhibition at 10 µM [3, 14]: 98% | IC50 ([3]; Rattus norvegicus, Microglia, Table 7, read-out: LPS_IC50): 0.002 µM | Fibrin % cell toxicity (primary rat microglia [4]; [15]): 6% and 5% | Quadrant (FIG. 5b) ([5]; Table 2, screen at 10 μM): Q2 | Quadrant (FIG. 5b) [5, 10]: Q2

C=C[C@H]1C[N@@]2CC[C@H]1C[C@@H]2[C@@H](O)c1ccnc2ccccc12 [Cinchonine]
inhibition at 10 µM [1, 16]: -6% | LPS % cell toxicity (primary rat microglia [2]; [17]): 0% | inhibition at 10 µM [3, 18]: 28% | Fibrin % cell toxicity (primary rat microglia [4]; [19]): 1% | Quadrant (FIG. 5b) ([5]; primary HTS, 10 μM): Q4

CCCCCCCCCCCCCCCC[N+](C)(C)C [Cetrimonium]
inhibition at 10 µM [1, 12]: 114% | LPS % cell toxicity (primary rat microglia [2]; [13]): 12% | inhibition at 10 µM [3, 14]: 132% | Fibrin % cell toxicity (primary rat microglia [4]; [15]): 28% | Quadrant (FIG. 5b) [5, 10]: Q2

O=c1oc2cc(O)ccc2s1 [Thioxolone, Tioxolone]
Fibrin % inhibition ([1]; primary microglia HTS, 10 μM, fibrin-stimulated, cell size >800 μm^2 as marker of activation): −18% | LPS % cell toxicity (primary rat microglia [2]; primary microglia HTS, 10 μM, LPS assay, cell size <150 μm^2 as marker of toxicity): 0% | LPS % inhibition ([3]; primary microglia HTS, 10 μM, LPS-stimulated, cell size >800 μm^2 as marker of activation): 12% | Fibrin % cell toxicity (primary rat microglia [4]; primary microglia HTS, 10 μM, fibrin assay, cell size <150 μm^2 as marker of toxicity): 0% | Quadrant (FIG. 5b) [5, 11]: Q4

CCCCCCCCCCCCCCCCOP(=O)([O-])OCC[N+](C)(C)C [Miltefosine]
inhibition at 10 µM [1, 12]: -31% | LPS % cell toxicity (primary rat microglia [2]; [13]): 0% | inhibition at 10 µM [3, 14]: 11% | Fibrin % cell toxicity (primary rat microglia [4]; [15]): 1% | Quadrant (FIG. 5b) [5, 10]: Q4

Cc1c(OCC(F)(F)F)ccnc1C[S+]([O-])c1nc2ccccc2[nH]1 (stereo not drawn) [Lansoprazole]
inhibition at 10 µM [1, 6]: 3% | LPS % cell toxicity (primary rat microglia [2]; [7]): 0% | inhibition at 10 µM [3, 8]: 15% | Fibrin % cell toxicity (primary rat microglia [4]; [9]): 0% | Quadrant (FIG. 5b) [5, 10]: Q4

CCCCC[C@H](O)/C=C/[C@H]1[C@H](O)CC(=O)[C@@H]1C/C=C\CCCC(=O)O [Dinoprostone]
inhibition at 10 µM [1, 12]: 102% | LPS % cell toxicity (primary rat microglia [2]; [13]): 2% | inhibition at 10 µM [3, 14]: 85% | Fibrin % cell toxicity (primary rat microglia [4]; [15]): 9% | Quadrant (FIG. 5b) [5, 10]: Q2

CC1=C(C(=O)O)N2C(=O)[C@@H](NC(=O)[C@H](N)c3ccc(O)cc3)[C@H]2SC1 [Cefadroxil]
inhibition at 10 µM [1, 16]: 1% | LPS % cell toxicity (primary rat microglia [2]; [17]): 0% | inhibition at 10 µM [3, 18]: 3% | Fibrin % cell toxicity (primary rat microglia [4]; [19]): 0% | Quadrant (FIG. 5b) ([5]; primary HTS, 10 μM): Q4
